Values quoted from earlier work, collected in US10328101B2, “Inactivation of papillomavirus” (priority 2001, dated 2019).

Tested on: bovine papillomavirus
Conditions: iodine in the form of povidone-iodine; low concentrations (title of reference)

## povidone-iodine
  treating viruses including bovine papillomavirus: effective
